ChEMBL document CHEMBL3045414, “Synthesis and evaluation of 2,4,6-trisubstituted pyrimidine derivatives as novel antileishmanial agents” (2013)

What follows are compounds tested on Leishmania donovani (assay: Antileishmanial activity against promastigote stage of Leishmania donovani assessed as parasite growth inhibition at 10 ug/ml after 2 hr by MTT assay relative to control). Details: read-out: GI.
Format: functional
For Nc1nc(-c2ccccc2)cc(-c2ccc(-n3ccnc3)cc2)n1, the inhibition of growth at 10 µg/mL was 32.8%.
Work on Nc1nc(-c2ccc(Cl)cc2)cc(-c2ccc(-n3ccnc3)cc2)n1 yielded an inhibition of growth at 10 µg/mL of 46.1%.
Nc1nc(-c2ccc(Br)cc2)cc(-c2ccc(-n3ccnc3)cc2)n1 gave an inhibition of growth at 10 µg/mL of 24.3%.
For COc1ccc(-c2cc(-c3ccc(-n4ccnc4)cc3)nc(N)n2)cc1, the inhibition of growth at 10 µg/mL was 18.1%.
Compound Nc1nc(-c2ccccc2)cc(-c2ccc(-n3cnc4ccccc43)cc2)n1 has an inhibition of growth at 10 µg/mL of 41.9%.
Nc1nc(-c2ccc(F)cc2)cc(-c2ccc(-n3cnc4ccccc43)cc2)n1 was tested, and the inhibition of growth at 10 µg/mL was 29.6%.
In the case of Nc1nc(-c2ccc(Cl)cc2)cc(-c2ccc(-n3cnc4ccccc43)cc2)n1, the inhibition of growth at 10 µg/mL was 32.7%.
Compound Nc1nc(-c2ccc(-n3cnc4ccccc43)cc2)cc(-c2ccc(Cl)cc2Cl)n1 has an inhibition of growth at 10 µg/mL of 56.4%.
For Nc1nc(-c2ccc(Br)cc2)cc(-c2ccc(-n3cnc4ccccc43)cc2)n1, the inhibition of growth at 10 µg/mL was 32.5%.
COc1ccc(-c2cc(-c3ccc(-n4cnc5ccccc54)cc3)nc(N)n2)cc1 gave an inhibition of growth at 10 µg/mL of 51.2%.
